# Assay results reported in patent US6683055B1, “Low molecular weight inhibitors of complement proteases” (BASF Aktiengesellschaft, priority 1999, dated 2004).
# Structures can show the parent of a compound that is named as a salt.
# Molecular target: T1, C1r from human plasma, activated, two-chain form (Homo sapiens, UniProt P00736)
# T1 construct: from tissue; host or cells: human plasma
# T1 sequence (P00736 18-463 partner limits assumed): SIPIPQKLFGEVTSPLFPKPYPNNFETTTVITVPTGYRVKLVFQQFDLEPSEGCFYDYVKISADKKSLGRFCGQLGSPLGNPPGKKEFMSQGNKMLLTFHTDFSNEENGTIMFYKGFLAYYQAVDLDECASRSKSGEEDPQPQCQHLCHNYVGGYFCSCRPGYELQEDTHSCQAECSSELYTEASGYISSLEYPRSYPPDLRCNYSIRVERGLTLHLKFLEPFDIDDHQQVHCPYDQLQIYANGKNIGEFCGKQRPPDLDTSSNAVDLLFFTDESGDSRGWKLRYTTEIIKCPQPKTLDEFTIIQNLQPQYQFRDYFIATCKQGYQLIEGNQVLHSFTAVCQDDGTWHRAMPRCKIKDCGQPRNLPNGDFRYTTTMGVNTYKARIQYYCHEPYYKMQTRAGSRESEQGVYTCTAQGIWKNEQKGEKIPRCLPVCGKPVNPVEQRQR
# T1 sequence (P00736 464-705 limits assumed): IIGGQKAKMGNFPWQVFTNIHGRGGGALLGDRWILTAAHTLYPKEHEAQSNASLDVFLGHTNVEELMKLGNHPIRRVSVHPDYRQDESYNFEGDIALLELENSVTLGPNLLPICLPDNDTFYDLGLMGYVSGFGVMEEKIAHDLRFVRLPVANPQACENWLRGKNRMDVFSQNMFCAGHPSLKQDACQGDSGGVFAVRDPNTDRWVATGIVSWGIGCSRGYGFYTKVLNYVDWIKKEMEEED
# Assay: Color substrate test for C1r inhibition (Example A)
# Assay type: biochemical
# Settings: amidolytic C1r activity, substrate Cbz-Gly-Arg-S-Bzl; read-out: C1R IC50 according to Example A
# Text: Color Substrate Test for C1r Inhibition
row,Molecule,IC50 [µM]
1,"N=C(N)c1coc(CNC(=O)[C@@H]2CCCN2C(=O)[C@@H](CC2CCCCC2)NCC(=O)O)c1 [Example 34, HOOC—CH2-(D)Cha-Pro-NH—CH2-5-(3-am)-fur.CH3COOH]",70
2,"N=C(N)c1csc(CNC(=O)[C@@H]2C=CCN2C(=O)[C@@H](CC2CCCCC2)NCC(=O)O)c1 [Example 38, HOOC—CH2-(D)Cha-Pyr-NH—CH2-5-(3-am)-thioph.CH3COOH]",10
3,"N=C(N)c1csc(CNC(=O)[C@@H]2CCN2C(=O)[C@H](NCC(=O)O)C2CCCCC2)c1 [Example 39, HOOC—CH2-(D)Chg-Aze-NH—CH2-5-(3-am)-thioph]",2
4,"N=C(N)c1csc(CNC(=O)[C@@H]2C=CCN2C(=O)C(NCC(=O)O)C2CCCCCC2)c1 (some centres unmarked) [Example 41, HOOC—CH2-Cheg-Pyr-NH—CH2-5-(3-am)-thioph.CH3COOH]",2
5,"N=C(N)c1csc(CNC(=O)[C@@H]2C=CCN2C(=O)C(NCC(=O)O)C2CCCC2)c1 (stereo partly drawn) [Example 42, HOOC—CH2-Cpg-Pyr-NH—CH2-5-(3-am)-thioph.CH3COOH]",0.7
6,"N=C(N)c1csc(CNC(=O)[C@@H]2CCCN2C(=O)[C@H](NCC(=O)O)C2CCCCC2)c1 [Example 43, HOOC—CH2-(D)Chg-Pro-NH—CH2-5-(3-am).thioph.2HCl]",6
7,"N=C(N)c1coc(CNC(=O)[C@@H]2C=CCN2C(=O)[C@@H](CC2CCCCC2)NCC(=O)O)c1 [Example 44, HOOC—CH2-(D)Cha-Pyr-NH—CH2-5-(3-am)-fur.CH3COOH]",40
8,"N=C(N)c1csc(CNC(=O)C2SCCN2C(=O)[C@H](NCC(=O)O)C2CCCCC2)c1 (stereo partly drawn) [Example 45, HOOC—CH2-(D)Chg-Thz-2-CO—NH—CH2-5-(3-am)-thioph]",6
9,"N=C(N)c1csc(CNC(=O)C2SCCN2C(=O)[C@@H](CC2CCCCC2)NCC(=O)O)c1 (stereo partly drawn) [Example 46, HOOC—CH2-(D)Cha-Thz-2-CO—NH—CH2-5-(3-am)-thioph.2HCl]",40
10,"N=C(N)c1csc(CNC(=O)[C@@H]2CC3CCCCC3N2C(=O)[C@@H](CC2CCCCC2)NCC(=O)O)c1 (some centres unmarked) [Example 47, HOOC—CH2-(D)Cha-(L)Ohi-2-CO—NH—CH2-5-(3-am)-thioph.HCl]",10
11,"N=C(N)c1csc(CNC(=O)[C@@H]2CC3CCCCC3N2C(=O)[C@H](NCC(=O)O)C2CCCCC2)c1 (some centres unmarked) [Example 48, HOOC—CH2-(D)Chg-(L)Ohi-2-CO—NH—CH2-5-(3-am)-thioph.HCl]",50
12,"N=C(N)c1csc(CNC(=O)C2C=CCN2C(=O)C(NCC(=O)O)C2CCCCC2)c1Cl (stereo not drawn) [Example 49, HOOC—CH2-(D)Chg-Pyr-NH—CH2-5-(4-Cl-3-am)-thioph.CH3COOH]",1
13,"N=C(N)c1csc(CNC(=O)C2C=CCN2C(=O)C(CC2CCCCC2)NCC(=O)O)c1Cl (stereo not drawn) [Example 50, HOOC—CH2(D)Cha-Pyr-NH—CH2-5-(4-Cl-3-am)-thioph.CH3COOH]",20
14,"Cc1c(C(=N)N)csc1CNC(=O)[C@@H]1C=CCN1C(=O)[C@H](NCC(=O)O)C1CCCCC1 [Example 51, HOOC—CH2-(D)Chg-Pyr-NH—CH2-5-(4-Me-3-am)-thioph.CH3COOH]",40
15,HOOC—CH2-(D)Cha-Pyr-NH—CH2-5-(3-Me-2-am)-thioph.CH3COOH [Example 53],8
16,"HOOC—CH2-(D,L)Cpg-Pyr-NH—CH2-5-(3-Me-3-am)-thioph.CH3COOH [Example 52]",10
17,HOOC—CH2—CH2-(D)Cha-Pro-NH-CH2-5-(2-am)-thioph.CH3COOH [Example 30],> 100

# Molecular target: T2, C1s from human plasma, activated, two-chain form (Homo sapiens, UniProt P09871)
# T2 construct: from tissue; host or cells: human plasma
# T2 sequence (P09871 16-437 partner limits assumed): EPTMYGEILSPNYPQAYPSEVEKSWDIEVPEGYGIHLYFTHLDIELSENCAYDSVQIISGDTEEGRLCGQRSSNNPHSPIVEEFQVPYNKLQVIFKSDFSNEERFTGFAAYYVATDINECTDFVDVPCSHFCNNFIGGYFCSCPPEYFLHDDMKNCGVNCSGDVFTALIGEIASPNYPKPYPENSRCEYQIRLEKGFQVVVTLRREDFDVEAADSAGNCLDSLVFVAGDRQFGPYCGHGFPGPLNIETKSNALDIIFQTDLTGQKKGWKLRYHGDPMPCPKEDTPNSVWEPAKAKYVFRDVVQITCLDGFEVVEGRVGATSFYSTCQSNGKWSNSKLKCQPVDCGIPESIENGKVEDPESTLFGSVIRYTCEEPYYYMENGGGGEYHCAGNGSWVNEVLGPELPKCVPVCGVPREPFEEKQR
# T2 sequence (P09871 438-688 limits assumed): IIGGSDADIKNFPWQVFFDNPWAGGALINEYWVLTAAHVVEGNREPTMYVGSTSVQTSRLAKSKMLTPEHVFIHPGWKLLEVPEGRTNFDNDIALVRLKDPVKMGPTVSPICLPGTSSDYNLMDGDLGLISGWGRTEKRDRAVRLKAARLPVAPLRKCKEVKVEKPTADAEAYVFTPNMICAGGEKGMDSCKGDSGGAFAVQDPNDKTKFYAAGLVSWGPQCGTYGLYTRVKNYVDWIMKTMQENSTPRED
# Assay: Color substrate test for C1s inhibition (Example B)
# Assay type: biochemical
# Settings: amidolytic C1s activity, substrate Cbz-Gly-Arg-S-Bzl; read-out: C1S IC50 according to Example B
# Text: Material and Methods: Color Subrate Test for C1s Inhibition
row,Molecule,IC50 [µM]
1,"N=C(N)c1coc(CNC(=O)[C@@H]2CCCN2C(=O)[C@@H](CC2CCCCC2)NCC(=O)O)c1 [Example 34, HOOC—CH2-(D)Cha-Pro-NH—CH2-5-(3-am)-fur.CH3COOH]",20
2,"N=C(N)c1csc(CNC(=O)[C@@H]2C=CCN2C(=O)[C@@H](CC2CCCCC2)NCC(=O)O)c1 [Example 38, HOOC—CH2-(D)Cha-Pyr-NH—CH2-5-(3-am)-thioph.CH3COOH]",5
3,"N=C(N)c1csc(CNC(=O)[C@@H]2CCN2C(=O)[C@H](NCC(=O)O)C2CCCCC2)c1 [Example 39, HOOC—CH2-(D)Chg-Aze-NH—CH2-5-(3-am)-thioph]",10
4,"N=C(N)c1csc(CNC(=O)[C@@H]2C=CCN2C(=O)C(NCC(=O)O)C2CCCCCC2)c1 (some centres unmarked) [Example 41, HOOC—CH2-Cheg-Pyr-NH—CH2-5-(3-am)-thioph.CH3COOH]",2
5,"N=C(N)c1csc(CNC(=O)[C@@H]2C=CCN2C(=O)C(NCC(=O)O)C2CCCC2)c1 (stereo partly drawn) [Example 42, HOOC—CH2-Cpg-Pyr-NH—CH2-5-(3-am)-thioph.CH3COOH]",1
6,"N=C(N)c1csc(CNC(=O)[C@@H]2CCCN2C(=O)[C@H](NCC(=O)O)C2CCCCC2)c1 [Example 43, HOOC—CH2-(D)Chg-Pro-NH—CH2-5-(3-am).thioph.2HCl]",10
7,"N=C(N)c1coc(CNC(=O)[C@@H]2C=CCN2C(=O)[C@@H](CC2CCCCC2)NCC(=O)O)c1 [Example 44, HOOC—CH2-(D)Cha-Pyr-NH—CH2-5-(3-am)-fur.CH3COOH]",3
8,"N=C(N)c1csc(CNC(=O)C2SCCN2C(=O)[C@H](NCC(=O)O)C2CCCCC2)c1 (stereo partly drawn) [Example 45, HOOC—CH2-(D)Chg-Thz-2-CO—NH—CH2-5-(3-am)-thioph]",20
9,"N=C(N)c1csc(CNC(=O)C2SCCN2C(=O)[C@@H](CC2CCCCC2)NCC(=O)O)c1 (stereo partly drawn) [Example 46, HOOC—CH2-(D)Cha-Thz-2-CO—NH—CH2-5-(3-am)-thioph.2HCl]",20
10,"N=C(N)c1csc(CNC(=O)[C@@H]2CC3CCCCC3N2C(=O)[C@@H](CC2CCCCC2)NCC(=O)O)c1 (some centres unmarked) [Example 47, HOOC—CH2-(D)Cha-(L)Ohi-2-CO—NH—CH2-5-(3-am)-thioph.HCl]",50
11,"N=C(N)c1csc(CNC(=O)[C@@H]2CC3CCCCC3N2C(=O)[C@H](NCC(=O)O)C2CCCCC2)c1 (some centres unmarked) [Example 48, HOOC—CH2-(D)Chg-(L)Ohi-2-CO—NH—CH2-5-(3-am)-thioph.HCl]",30
12,"N=C(N)c1csc(CNC(=O)C2C=CCN2C(=O)C(NCC(=O)O)C2CCCCC2)c1Cl (stereo not drawn) [Example 49, HOOC—CH2-(D)Chg-Pyr-NH—CH2-5-(4-Cl-3-am)-thioph.CH3COOH]",1
13,"N=C(N)c1csc(CNC(=O)C2C=CCN2C(=O)C(CC2CCCCC2)NCC(=O)O)c1Cl (stereo not drawn) [Example 50, HOOC—CH2(D)Cha-Pyr-NH—CH2-5-(4-Cl-3-am)-thioph.CH3COOH]",3
14,"Cc1c(C(=N)N)csc1CNC(=O)[C@@H]1C=CCN1C(=O)[C@H](NCC(=O)O)C1CCCCC1 [Example 51, HOOC—CH2-(D)Chg-Pyr-NH—CH2-5-(4-Me-3-am)-thioph.CH3COOH]",3
15,HOOC—CH2-(D)Cha-Pyr-NH—CH2-5-(3-Me-2-am)-thioph.CH3COOH [Example 53],20
16,"HOOC—CH2-(D,L)Cpg-Pyr-NH—CH2-5-(3-Me-3-am)-thioph.CH3COOH [Example 52]",4
17,HOOC—CH2—CH2-(D)Cha-Pro-NH-CH2-5-(2-am)-thioph.CH3COOH [Example 30],5

# Molecular target: T3, factor D (Homo sapiens, UniProt P00746)
# T3 construct: purchased Calbiochem 341273
# T3 sequence (P00746 26-253): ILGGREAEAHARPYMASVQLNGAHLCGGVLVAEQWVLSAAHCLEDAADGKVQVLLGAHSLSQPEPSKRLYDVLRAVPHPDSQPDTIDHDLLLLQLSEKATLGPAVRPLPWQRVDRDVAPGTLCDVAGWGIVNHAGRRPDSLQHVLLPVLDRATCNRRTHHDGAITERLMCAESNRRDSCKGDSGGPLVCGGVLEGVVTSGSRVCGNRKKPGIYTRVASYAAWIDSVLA
# Assay: Inhibition of the protease factor D (Example D)
# Assay type: biochemical
# Settings: substrate Z-Lys-SBzl, run along as inhibitor in the test
# Text: Example D Testing of Inhibitors for Inhibition of the Protease Factor D In the alternative route of the complement system, factor D performs a central function. Owing to the low plasma concentration of factor D, the enzymatic step involving the cleavage of factor B by factor D constitutes the rate-determining step in the alternative route of complement activation. Owing to the limiting role which this enzyme plays in the alternative route, factor D is a target for the inhibition of the complement system. The commercial substrate Z-Lys-SBzl*HCl is converted by the enzyme factor D (literature: Kam, C. M. et al., J. Biol. Chem. 262, 1987, 3444-3451). The detection of the cleaved substrate is effected by reaction with Ellmann's reagent. The product formed is detected spectrophotometrically. The reaction can be monitored online. This permits measurements of enzyme kinetics. [table] The batches are pipetted together into microtiter plates. After mixing of buffer, substrate and Ellmann's reagent (possibly inhibitors), the enzyme reaction is started by adding in each case 5 μl of factor D. Incubation takes place at room temperature for 60 minutes. Measurement at 405 nm for 1 hour at 3 minute intervals The result is plotted graphically. […]
row,Molecule,inhibition of factor D
1,N=C(N)c1ccc2cc(OC(=O)c3ccc(N=C(N)N)cc3)ccc2c1 [FUT-175],effective inhibitor
